Measurements: patent US20240174690A1, “ANNULATED 2-AMINO-3-CYANO THIOPHENES AND DERIVATIVES FOR THE TREATMENT OF CANCER” (BOEHRINGER INGELHEIM INTERNATIONAL GMBH, priority 2021, published 2024)

Columns and labels:
[1] = tested on: NCI-H358 cells; assay: NCI-H358 CTG proliferation assay (120 h) (NSCLC, G12C); format: cell-based, human; settings: Homo sapiens, assay 2, CTG, read-out: H358 (assay 2) IC50
Summary of the method: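 IC50 values derive from four-parameter nonlinear regression of CellTiter-Glo viability (RLU relative to DMSO wells) after 120 h of exposure. Cells were plated in RPMI-1640 + 10% FCS at 2000 per well (assay 1) or 200 per well (assay 2). Untreated cells were measured at compound addition as T0.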

[2] = tested on: LOVO cells; assay: LOVO CTG proliferation assay (120 h) (CRC, G13D); format: cell-based; settings: Homo sapiens, CTG 120 h
Summary of the method: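 IC50 comes from a four-parameter fit of CellTiter-Glo viability, expressed as RLU relative to DMSO wells. Compound exposure lasted 120 h in LOVO cells seeded the day before at 1000 cells/well in DMEM with 10% fetal calf serum.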

[3] = molecular target: KRAS (G12C)::SOS1 (Homo sapiens (Human), UniProt P01116, C118S/C51S/C80L/G12C); assay: KRAS::SOS1 AlphaScreen binding assay, KRAS G12C
Sequence of KRAS (G12C)::SOS1 (P01116 other isoform, or with tags, fused parts or gaps G12C/C51S/C80L/C118S): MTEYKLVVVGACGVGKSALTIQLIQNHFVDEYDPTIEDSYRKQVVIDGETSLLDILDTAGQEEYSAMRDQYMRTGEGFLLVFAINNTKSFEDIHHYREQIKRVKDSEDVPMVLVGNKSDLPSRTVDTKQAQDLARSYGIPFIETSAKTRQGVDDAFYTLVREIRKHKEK
Summary of the method: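 AlphaScreen measurement of compound disruption of biotinylated, GDP-loaded KRAS 1-169 (10 nM; G12C 7.5 nM) binding to GST-SOS1 564-1049 (5 nM with G12D/G12C, 10 nM otherwise), with 10 μM GDP in PBS/0.1% BSA/0.05% Tween 20. Timing was 30 min compound preincubation, then 60 min with beads at room temperature; top concentration 100 μM, 4-parameter IC50.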

IC50 [1]	IC50 [2]	IC50 [3]	Compound
417 nM	91 nM	2 nM	C[C@H](Oc1cc(-c2ccn(Cc3ncco3)n2)nc(-c2noc3c2CCC[C@@]32CCCc3sc(N)c(C#N)c32)n1)[C@@H]1CCCN1C [II-128]
3 nM	38 nM	1 nM	CC(C)NC(=O)Cc1ccn(-c2cc(O[C@@H](C)[C@@H]3CCCN3C)nc(-c3noc4c3CCC[C@@]43CCCc4sc(N)c(C#N)c43)n2)n1 [II-182]
112 nM	139 nM	2 nM	C[C@H](Oc1cc(-n2cc3c(n2)CN(C)C3)nc(-c2noc3c2CCC[C@@]32CCCc3sc(N)c(C#N)c32)n1)[C@@H]1CCCN1C [II-174]
702 nM	5490 nM	5 nM	C[C@H]1CNCCCN1c1cc(-c2ccn(C)n2)nc(-c2noc3c2CCC[C@@]32CCCc3sc(N)c(C#N)c32)n1 [II-140]
–	–	299 nM	C[C@H]1CNCCCN1c1nc(-c2onc3c2CCC[C@@]32CCCc3sc(N)c(C#N)c32)cc(C(F)(F)F)n1 [I-15]
2160 nM	479 nM	2 nM	C[C@H](Oc1cc(N2Cc3cnn(C)c3C2)nc(-c2onc3c2CCC[C@@]32CCCc3sc(N)c(C#N)c32)n1)[C@@H]1CCCN1C [I-19]
277 nM	225 nM	–	C[C@H](Oc1cc(-n2nccc2-c2ccncc2)nc(-c2noc3c2CCC[C@@]32CCCc3sc(N)c(C#N)c32)n1)[C@@H]1CCCN1C [II-131]
1 nM	25 nM	1 nM	CO[C@H]1CCN(C)[C@@H]1[C@H](C)Oc1cc(-n2ccc(C(=O)N[C@H]3CCOC3)n2)nc(-c2noc3c2CCC[C@@]32CCCc3sc(N)c(C#N)c32)n1 [II-198]
2 nM	15 nM	1 nM	CO[C@H]1CCN(C)[C@@H]1[C@H](C)Oc1cc(-n2ccc(C(=O)N[C@@H](C)c3ccccn3)n2)nc(-c2noc3c2CCC[C@@]32CCCc3sc(N)c(C#N)c32)n1 [II-196]
19 nM	39 nM	2 nM	C[C@H](Oc1cc(-n2ccc(C3(O)COC3)n2)nc(-c2noc3c2CCC[C@@]32CCCc3sc(N)c(C#N)c32)n1)[C@@H]1CCCN1C [II-189]
1 nM	40 nM	2 nM	C[C@H](Oc1cc(-n2ccc(-c3cn([C@@H]4CCOC4)nn3)n2)nc(-c2noc3c2CCC[C@@]32CCCc3sc(N)c(C#N)c32)n1)[C@@H]1CCCN1C [II-211]
40 nM	246 nM	2 nM	C[C@H](Oc1cc(C2=CCNCC2)nc(-c2noc3c2CCC[C@@]32CCCc3sc(N)c(C#N)c32)n1)[C@@H]1CCCN1C [II-164]
135 nM	429 nM	2 nM	CO[C@@H]1C[C@@H]([C@H](C)Oc2cc(N3CCNC4(CC4)C3)nc(-c3noc4c3CCC[C@@]43CCCc4sc(N)c(C#N)c43)n2)N(C)C1 [II-187]
151 nM	136 nM	2 nM	C[C@H](Oc1nc(-c2noc3c2CCC[C@@]32CCCc3sc(N)c(C#N)c32)nc(N2C[C@H](C)NC3(CC3)C2)c1F)[C@@H]1C[C@@H](F)CN1C [II-157]
–	284 nM	2 nM	C[C@H](Oc1cc(-n2cc3c(n2)CCN(C)C3)nc(-c2noc3c2CCC[C@@]32CCCc3sc(N)c(C#N)c32)n1)[C@@H]1CCCN1C [II-141]
–	1230 nM	5 nM	C[C@H](Oc1cc(N2C[C@H](C)N(C)[C@@H](C)C2)nc(-c2noc3c2CCC[C@@]32CCCc3sc(N)c(C#N)c32)n1)[C@@H]1CCCN1C [II-173]
1 nM	35 nM	2 nM	C[C@H](Oc1cc(-n2ccc(-c3cn([C@H]4CCOC4)nn3)n2)nc(-c2noc3c2CCC[C@@]32CCCc3sc(N)c(C#N)c32)n1)[C@@H]1CCCN1C [II-212]
5 nM	34 nM	1 nM	CO[C@H]1CCN(C)[C@@H]1[C@H](C)Oc1cc(-n2ccc(C(=O)N(C)C3COC3)n2)nc(-c2noc3c2CCC[C@@]32CCCc3sc(N)c(C#N)c32)n1 [II-199]
295 nM	69 nM	2 nM	C[C@H](Oc1cc(-c2ccn(C[C@H]3CCOC3)n2)nc(-c2noc3c2CCC[C@@]32CCCc3sc(N)c(C#N)c32)n1)[C@@H]1CCCN1C [II-129]
5 nM	70 nM	2 nM	C[C@H](Oc1cc(-n2cc3ccn([C@@H]4CCOC4)c(=O)c3n2)nc(-c2noc3c2CCC[C@@]32CCCc3sc(N)c(C#N)c32)n1)[C@@H]1CCCN1C [II-203]
2 nM	35 nM	2 nM	C[C@H](Oc1cc(-n2ccc(-c3cn(C4CCOCC4)nn3)n2)nc(-c2noc3c2CCC[C@@]32CCCc3sc(N)c(C#N)c32)n1)[C@@H]1CCCN1C [II-210]

IC50 [1]	IC50 [2]	IC50 [3]	Compound
115 nM	81 nM	2 nM	C[C@H](Oc1cc(N2CCNC3(COC3)C2)nc(-c2noc3c2CCC[C@@]32CCCc3sc(N)c(C#N)c32)n1)[C@@H]1C[C@@H](F)CN1C [II-150]
5 nM	103 nM	1 nM	C[C@H](Oc1cc(-n2cc3ccn([C@H]4CCOC4)c(=O)c3n2)nc(-c2noc3c2CCC[C@@]32CCCc3sc(N)c(C#N)c32)n1)[C@@H]1CCCN1C [II-202]
3120 nM	824 nM	2 nM	C[C@H](Oc1cc(N2CCNC[C@]23CCOC3)nc(-c2onc3c2CCC[C@@]32CCCc3sc(N)c(C#N)c32)n1)[C@@H]1CCCN1C [I-12]
–	–	9 nM	CNC1CCN(c2cc(O[C@@H](C)[C@@H]3CCCN3C)nc(-c3noc4c3CCC[C@@]43CCCc4sc(N)c(C#N)c43)n2)CC1 [II-214]
2 nM	32 nM	1 nM	C[C@H](Oc1cc(-n2ccc(C(=O)N[C@@H]3CCOC3)n2)nc(-c2noc3c2CCC[C@@]32CCCc3sc(N)c(C#N)c32)n1)[C@@H]1CCCN1C [II-192]
–	9 nM	2 nM	CO[C@H]1CCN(C)[C@@H]1[C@H](C)Oc1cc(-n2ccc(CC(=O)NC(C)C)n2)nc(-c2noc3c2CCC[C@@]32CCCc3sc(N)c(C#N)c32)n1 [II-183]
–	1350 nM	2 nM	C[C@H](Oc1cc(-n2cncc3ccnc2-3)nc(-c2onc3c2CCC[C@@]32CCCc3sc(N)c(C#N)c32)n1)[C@@H]1CCCN1C [I-14]
–	109 nM	2 nM	C[C@H](Oc1cc(N2CCN(C)C3(COC3)C2)nc(-c2noc3c2CCC[C@@]32CCCc3sc(N)c(C#N)c32)n1)[C@@H]1C[C@@H](F)CN1C [II-148]
–	730 nM	4 nM	CO[C@@H]1C[C@@H]([C@H](C)Oc2cc(-c3cnn(C)n3)nc(-c3onc4c3CCC[C@@]43CCCc4sc(N)c(C#N)c43)n2)N(C)C1 [I-17]
–	193 nM	2 nM	C[C@H](Oc1cc(-n2cc3c(n2)CNC3)nc(-c2noc3c2CCC[C@@]32CCCc3sc(N)c(C#N)c32)n1)[C@@H]1CCCN1C [II-168]
–	270 nM	8 nM	C[C@H](Oc1cc(N2CCN(C)C3(CC3)C2)nc(-c2noc3c2CCC[C@@]32CCCc3sc(N)c(C#N)c32)n1)[C@@H]1C[C@@H](F)CN1C [II-149]
–	2840 nM	3 nM	C[C@H](Oc1cc(-c2ccn(C)n2)nc(-c2noc3c2CCC[C@@]32CCCc3sc(N)c(C#N)c32)n1)[C@@H]1C[C@H](F)CN1C [II-144]
–	1060 nM	8 nM	C[C@H](Oc1cc(N2CCN(C)C3(CCOC3)C2)nc(-c2noc3c2CCC[C@@]32CCCc3sc(N)c(C#N)c32)n1)[C@@H]1C[C@@H](F)CN1C (stereo partly drawn) [II-151]
–	863 nM	8 nM	CC(C)[C@@H]1CN(c2cc(O[C@@H](C)[C@@H]3CCCN3C)nc(-c3noc4c3CCC[C@@]43CCCc4sc(N)c(C#N)c43)n2)CCN1 [II-166]
–	593 nM	5 nM	C[C@H](Oc1cc(N2CCN(C)C3(CC3)C2)nc(-c2noc3c2CCC[C@@]32CCCc3sc(N)c(C#N)c32)n1)[C@@H]1CCCN1C [II-171]
204 nM	–	2 nM	C[C@H](Oc1cc(-c2cn(C)nn2)nc(-c2onc3c2CCC[C@@]32CCCc3sc(N)c(C#N)c32)n1)[C@@H]1CCCN1C [I-16]
–	6430 nM	5 nM	C[C@H](Oc1cc(N2C[C@@H]3[C@@H](N)[C@@H]3C2)nc(-c2noc3c2CCC[C@@]32CCCc3sc(N)c(C#N)c32)n1)[C@@H]1CCCN1C [II-167]
–	1090 nM	2 nM	C[C@H](Oc1cc([C@H]2CCNC2)nc(-c2noc3c2CCC[C@@]32CCCc3sc(N)c(C#N)c32)n1)[C@@H]1CCCN1C [II-163]
–	401 nM	3 nM	C[C@H](Oc1cc(N2CCN[C@@H](C)C2)nc(-c2noc3c2CCC[C@@]32CCCc3sc(N)c(C#N)c32)n1)[C@@H]1CCCN1C [II-162]
–	472 nM	5 nM	C[C@@H]1CN(c2cc(O[C@@H](C)[C@@H]3CCCN3C)nc(-c3noc4c3CCC[C@@]43CCCc4sc(N)c(C#N)c43)n2)CCN1 [II-161]
–	3240 nM	2 nM	C[C@H](O)Cn1ncc(-c2cc(O[C@@H](C)[C@@H]3CCCN3C)nc(-c3noc4c3CCC[C@@]43CCCc4sc(N)c(C#N)c43)n2)n1 [II-134]

Compound	IC50 [1]	IC50 [2]	IC50 [3]
C[C@H](Oc1cc(N2CC3COCC(C2)N3)nc(-c2noc3c2CCC[C@@]32CCCc3sc(N)c(C#N)c32)n1)[C@@H]1CCCN1C [II-160]	–	7610 nM	7 nM
